Experiments:
Assay in all cases: Competitive isoTOP-ABPP, cell lysates
Type in all cases: binding
UCHL3 C95 (P15374) = molecular target: T1, UCHL3 C95 (P15374) (Homo sapiens, UniProt P15374)
T1 sequence (P15374 1-230): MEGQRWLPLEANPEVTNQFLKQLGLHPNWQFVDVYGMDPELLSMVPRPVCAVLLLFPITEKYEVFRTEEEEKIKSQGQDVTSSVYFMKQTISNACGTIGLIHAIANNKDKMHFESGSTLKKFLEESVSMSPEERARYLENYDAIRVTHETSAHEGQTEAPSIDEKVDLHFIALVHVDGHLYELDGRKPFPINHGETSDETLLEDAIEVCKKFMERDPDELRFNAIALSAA

SAMHD1 C522 (Q9Y3Z3) = SAMHD1 C522 (Q9Y3Z3) (Homo sapiens, UniProt Q9Y3Z3)
GNB2L1 C182 (P63244) = GNB2L1 C182 (P63244) (Homo sapiens, UniProt P63244); conditions: for isoTOP-ABPP reactivity ratio, P63244_C182: 500 μm
GSTP1 C48 (P09211) = GSTP1 C48 (P09211) (Homo sapiens, UniProt P09211); conditions: for isoTOP-ABPP reactivity ratio, P09211_C48: 500 μm
AIP C122 (O00170) = molecular target: T2, AIP C122 (O00170) (Homo sapiens, UniProt O00170)
T2 sequence (O00170 1-330): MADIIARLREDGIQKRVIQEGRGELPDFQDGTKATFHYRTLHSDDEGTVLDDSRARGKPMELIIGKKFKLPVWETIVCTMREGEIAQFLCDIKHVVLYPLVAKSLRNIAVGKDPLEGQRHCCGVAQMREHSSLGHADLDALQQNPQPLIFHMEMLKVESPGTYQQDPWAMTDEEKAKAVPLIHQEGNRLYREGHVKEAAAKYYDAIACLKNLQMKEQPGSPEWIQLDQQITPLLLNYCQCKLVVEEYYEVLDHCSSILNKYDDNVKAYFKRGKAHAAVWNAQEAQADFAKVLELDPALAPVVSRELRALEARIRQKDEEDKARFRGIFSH

IDH1 C269 (O75874) = IDH1 C269 (O75874) (Homo sapiens, UniProt O75874)
UBE2S C118 (Q16763) = molecular target: T3, UBE2S C118 (Q16763) (Homo sapiens, UniProt Q16763)
T3 sequence (Q16763 1-222): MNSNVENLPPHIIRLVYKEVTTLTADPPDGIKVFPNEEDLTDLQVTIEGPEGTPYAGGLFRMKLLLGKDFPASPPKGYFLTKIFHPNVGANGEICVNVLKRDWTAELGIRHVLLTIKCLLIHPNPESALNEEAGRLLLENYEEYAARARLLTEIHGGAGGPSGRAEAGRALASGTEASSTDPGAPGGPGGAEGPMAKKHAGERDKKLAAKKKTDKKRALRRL

ZNF217 C286 (O75362) = ZNF217 C286 (O75362) (Homo sapiens, UniProt O75362); conditions: 500 μm in-vitro ramos_231
USP22 C171 (Q9UPT9) = molecular target: T4, USP22 C171 (Q9UPT9) (Homo sapiens, UniProt Q9UPT9); conditions: 500 μm, in-vitro_ramos
T4 sequence (Q9UPT9 1-525): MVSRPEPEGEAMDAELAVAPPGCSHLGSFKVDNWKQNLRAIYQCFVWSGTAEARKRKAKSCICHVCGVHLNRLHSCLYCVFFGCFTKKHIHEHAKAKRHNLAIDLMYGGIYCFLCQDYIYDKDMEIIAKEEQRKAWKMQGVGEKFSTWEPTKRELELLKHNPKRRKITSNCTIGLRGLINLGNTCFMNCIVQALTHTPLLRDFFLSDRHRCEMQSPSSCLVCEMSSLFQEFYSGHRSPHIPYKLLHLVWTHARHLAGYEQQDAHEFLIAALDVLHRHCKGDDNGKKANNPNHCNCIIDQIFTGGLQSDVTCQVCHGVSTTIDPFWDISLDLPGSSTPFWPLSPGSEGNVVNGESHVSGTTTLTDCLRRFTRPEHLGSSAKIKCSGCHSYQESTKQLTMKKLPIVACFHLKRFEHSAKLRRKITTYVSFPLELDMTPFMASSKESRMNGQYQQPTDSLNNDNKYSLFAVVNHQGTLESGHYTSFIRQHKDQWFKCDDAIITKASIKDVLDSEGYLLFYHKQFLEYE

Chain of GSTP1 C48 (P09211) (P09211 whole entry): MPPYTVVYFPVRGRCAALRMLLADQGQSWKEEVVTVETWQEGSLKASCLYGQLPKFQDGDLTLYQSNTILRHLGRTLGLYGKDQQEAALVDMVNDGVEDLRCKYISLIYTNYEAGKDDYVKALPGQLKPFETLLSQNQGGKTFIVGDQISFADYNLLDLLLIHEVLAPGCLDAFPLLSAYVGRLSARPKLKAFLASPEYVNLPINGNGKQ
Chain of IDH1 C269 (O75874) (O75874 whole entry): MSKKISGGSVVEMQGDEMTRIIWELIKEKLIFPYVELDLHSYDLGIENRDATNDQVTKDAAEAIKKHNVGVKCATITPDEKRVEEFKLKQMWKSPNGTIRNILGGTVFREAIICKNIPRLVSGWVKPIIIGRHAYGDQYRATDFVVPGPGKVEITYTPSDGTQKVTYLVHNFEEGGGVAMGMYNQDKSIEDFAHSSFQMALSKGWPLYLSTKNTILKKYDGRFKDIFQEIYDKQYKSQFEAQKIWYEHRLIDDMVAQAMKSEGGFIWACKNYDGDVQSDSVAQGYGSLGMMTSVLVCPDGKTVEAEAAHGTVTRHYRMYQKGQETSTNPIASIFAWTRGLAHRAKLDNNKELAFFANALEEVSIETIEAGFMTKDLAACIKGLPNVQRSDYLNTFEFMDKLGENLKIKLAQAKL
Chain of SAMHD1 C522 (Q9Y3Z3) (Q9Y3Z3 whole entry): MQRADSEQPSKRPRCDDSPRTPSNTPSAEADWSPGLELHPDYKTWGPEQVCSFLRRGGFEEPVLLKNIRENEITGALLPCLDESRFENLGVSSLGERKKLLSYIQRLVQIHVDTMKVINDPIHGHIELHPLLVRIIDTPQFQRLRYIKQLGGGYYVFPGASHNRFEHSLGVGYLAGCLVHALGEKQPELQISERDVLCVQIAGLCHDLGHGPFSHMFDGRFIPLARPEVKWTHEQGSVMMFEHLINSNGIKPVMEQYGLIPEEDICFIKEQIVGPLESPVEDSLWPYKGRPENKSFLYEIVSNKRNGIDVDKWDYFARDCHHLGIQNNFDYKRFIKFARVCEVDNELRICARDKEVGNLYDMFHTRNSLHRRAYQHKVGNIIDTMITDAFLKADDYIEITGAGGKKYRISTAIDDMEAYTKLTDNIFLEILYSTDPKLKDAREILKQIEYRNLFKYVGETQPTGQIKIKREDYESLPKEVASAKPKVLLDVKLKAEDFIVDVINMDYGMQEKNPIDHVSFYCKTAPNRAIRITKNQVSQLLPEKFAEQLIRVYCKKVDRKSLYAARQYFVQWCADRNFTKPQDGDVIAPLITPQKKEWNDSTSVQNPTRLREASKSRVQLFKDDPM
Chain of ZNF217 C286 (O75362) (O75362 whole entry): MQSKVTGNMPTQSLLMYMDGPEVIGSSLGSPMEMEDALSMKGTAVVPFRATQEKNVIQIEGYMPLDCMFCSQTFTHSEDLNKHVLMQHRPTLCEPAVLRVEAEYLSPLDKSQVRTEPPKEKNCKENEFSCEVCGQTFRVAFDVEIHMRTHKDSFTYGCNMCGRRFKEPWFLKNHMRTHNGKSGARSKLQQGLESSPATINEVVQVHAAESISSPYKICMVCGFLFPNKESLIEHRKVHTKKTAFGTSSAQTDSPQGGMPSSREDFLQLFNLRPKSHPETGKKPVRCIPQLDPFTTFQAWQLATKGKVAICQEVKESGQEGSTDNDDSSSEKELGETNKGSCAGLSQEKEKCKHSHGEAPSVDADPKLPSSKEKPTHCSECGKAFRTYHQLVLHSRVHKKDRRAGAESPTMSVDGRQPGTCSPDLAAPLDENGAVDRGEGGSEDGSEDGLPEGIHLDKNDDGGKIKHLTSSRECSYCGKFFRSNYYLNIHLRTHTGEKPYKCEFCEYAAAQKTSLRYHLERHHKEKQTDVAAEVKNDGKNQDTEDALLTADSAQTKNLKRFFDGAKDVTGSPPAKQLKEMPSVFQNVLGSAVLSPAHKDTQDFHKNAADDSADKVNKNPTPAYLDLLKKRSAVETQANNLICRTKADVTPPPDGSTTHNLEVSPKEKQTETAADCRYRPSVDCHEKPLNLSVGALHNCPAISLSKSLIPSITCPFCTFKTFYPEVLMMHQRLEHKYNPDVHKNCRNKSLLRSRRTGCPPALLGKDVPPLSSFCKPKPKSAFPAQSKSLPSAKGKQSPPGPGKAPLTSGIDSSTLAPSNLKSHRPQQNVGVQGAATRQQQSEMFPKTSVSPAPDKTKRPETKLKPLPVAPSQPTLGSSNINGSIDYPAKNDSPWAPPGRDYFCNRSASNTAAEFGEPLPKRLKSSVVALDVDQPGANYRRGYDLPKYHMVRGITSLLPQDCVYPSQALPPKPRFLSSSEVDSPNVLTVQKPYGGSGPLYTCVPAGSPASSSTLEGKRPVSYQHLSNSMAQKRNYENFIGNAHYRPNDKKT

| SMILES | isoTOP-ABPP ratio (reactivity profile), P15374_C95 (UCHL3 C95 (P15374); 500 μm in-vitro ramos) | isoTOP-ABPP ratio (reactivity profile), Q9Y3Z3_C522 (SAMHD1 C522 (Q9Y3Z3); 500 μm in-vitro ramos) | isoTOP-ABPP ratio (reactivity profile), P63244_C182 (GNB2L1 C182 (P63244); 500 μm in-vitro ramos) | isoTOP-ABPP ratio (reactivity profile), P09211_C48 (GSTP1 C48 (P09211); 500 μm in-vitro ramos) | isoTOP-ABPP ratio (reactivity profile), O00170_C122 (AIP C122 (O00170); 500 μm in-vitro ramos) | isoTOP-ABPP ratio (reactivity profile), P15374_C95 (UCHL3 C95 (P15374); 500 μm in-vitro ramos_231) | isoTOP-ABPP ratio (reactivity profile), O75362_C286 (ZNF217 C286 (O75362)) | isoTOP-ABPP ratio (reactivity profile), P63244_C182 (GNB2L1 C182 (P63244); 500 μm in-vitro ramos_231) | isoTOP-ABPP ratio (reactivity profile), P09211_C48 (GSTP1 C48 (P09211); 500 μm in-vitro ramos_231) | isoTOP-ABPP ratio (reactivity profile), O75874_C269 (IDH1 C269 (O75874); 500 μm in-vitro ramos_231) | isoTOP-ABPP reactivity ratio, P09211_C48 (GSTP1 C48 (P09211); in-vitro_ramos) | isoTOP-ABPP reactivity ratio, P09211_C48 (GSTP1 C48 (P09211); in-vitro_ramos_231) | further results |
| --- | --- | --- | --- | --- | --- | --- | --- | --- | --- | --- | --- | --- | --- |
| C=CC(=O)N(Cc1cccnc1)c1ccc(Oc2ccccc2)c(C(F)(F)F)c1 [compound 15] | 0.7 | 1.6 | 1.3 | 1.3 | 1.4 |  |  |  |  |  |  |  | isoTOP-ABPP ratio, P09211_C48 (GSTP1 C48 (P09211); 500 μM, invitro, 231): 2.5; isoTOP-ABPP ratio (reactivity profile), O75874_C269 (IDH1 C269 (O75874); 500 μm in-vitro ramos): 0.6; isoTOP-ABPP ratio (reactivity profile), Q16763_C118 (UBE2S C118 (Q16763); 500 μm in-vitro ramos): 1.2 |
| O=C(CCl)NC12CC3CC(CC(C3)C1)C2 [compound 21] |  | 1.4 | 0.9 | 1.3 |  | 1.1 | 0.9 | 0.9 | 1.1 | 1.5 |  |  | isoTOP-ABPP ratio (reactivity profile), O00170_C122 (AIP C122 (O00170); 500 μm in-vitro ramos_231): 1.4; isoTOP-ABPP ratio (reactivity profile), Q16763_C118 (UBE2S C118 (Q16763); 500 μm in-vitro ramos_231): 0.9 |

Now from value to compound, other results behind:

| isoTOP-ABPP ratio (reactivity profile), P15374_C95 (UCHL3 C95 (P15374); 500 μm in-vitro ramos) | isoTOP-ABPP ratio (reactivity profile), Q9Y3Z3_C522 (SAMHD1 C522 (Q9Y3Z3); 500 μm in-vitro ramos) | isoTOP-ABPP ratio (reactivity profile), P63244_C182 (GNB2L1 C182 (P63244); 500 μm in-vitro ramos) | isoTOP-ABPP ratio (reactivity profile), P09211_C48 (GSTP1 C48 (P09211); 500 μm in-vitro ramos) | isoTOP-ABPP ratio (reactivity profile), O00170_C122 (AIP C122 (O00170); 500 μm in-vitro ramos) | isoTOP-ABPP ratio (reactivity profile), P15374_C95 (UCHL3 C95 (P15374); 500 μm in-vitro ramos_231) | isoTOP-ABPP ratio (reactivity profile), O75362_C286 (ZNF217 C286 (O75362)) | isoTOP-ABPP ratio (reactivity profile), P63244_C182 (GNB2L1 C182 (P63244); 500 μm in-vitro ramos_231) | isoTOP-ABPP ratio (reactivity profile), P09211_C48 (GSTP1 C48 (P09211); 500 μm in-vitro ramos_231) | isoTOP-ABPP ratio (reactivity profile), O75874_C269 (IDH1 C269 (O75874); 500 μm in-vitro ramos_231) | isoTOP-ABPP reactivity ratio, P09211_C48 (GSTP1 C48 (P09211); in-vitro_ramos) | isoTOP-ABPP reactivity ratio, P09211_C48 (GSTP1 C48 (P09211); in-vitro_ramos_231) | SMILES | further results |
| --- | --- | --- | --- | --- | --- | --- | --- | --- | --- | --- | --- | --- | --- |
| 1.0 |  | 1.2 | 0.4 | 1.3 | 0.9 | 0.9 | 1.3 | 1.0 | 0.8 |  |  | O=C(CCl)N1CCN(CC(=O)N2CCOCC2)CC1 [compound 29] | isoTOP-ABPP ratio (reactivity profile), Q9Y3Z3_C522 (SAMHD1 C522 (Q9Y3Z3); 500 μm in-vitro ramos_231): 1.5 |
|  |  |  |  |  |  |  |  |  |  | 1.0 | 0.8 | O=C(CCl)N(Cc1ccc(F)cc1)C12CC3CC(CC(C3)C1)C2 [compound 34] | isoTOP-ABPP reactivity ratio, O00170_C122 (AIP C122 (O00170); 500 μm, in-vitro_ramos_231): 1.0 |
|  |  |  |  |  |  |  |  |  |  | 1.3 | 0.7 | O=C(CCl)Nc1ccccc1C1CCCCCC1 [compound 35] | isoTOP-ABPP reactivity ratio, P63244_C182 (GNB2L1 C182 (P63244); in-vitro_ramos): 0.9; isoTOP-ABPP reactivity ratio, P63244_C182 (GNB2L1 C182 (P63244); in-vitro_ramos_231): 0.9; isoTOP-ABPP reactivity ratio, Q9UPT9_C171 (USP22 C171 (Q9UPT9)): 1.5 |
